Experimental data taken from PMC8217170, “Phase Ib dose-escalation study of the hypoxia-modifier Myo-inositol trispyrophosphate in patients with hepatopancreatobiliary tumors” (Nature Communications, 2021).
Where “and” joins values, the source holds several entries; their conditions need not be identical. Identical values can stand only once.

Test: Plasma levels and pharmacokinetics of intravenous ITPP
Settings: for VSSO / VZO / AUCTmax / AUC∞ / AUC∞ / Dose / AUMCTmax / AUMC∞ / CLO / Clast / Cmax / Cmax / Dose / Cmin / Elimination rate λz / Half-life / T0.5 / MRTTmax / MRT∞ / Tlast / Tmax: individual patients

Compound: O=P1(O)OC2C3OP(=O)(O)OP(=O)(O)OC3C3OP(=O)(O)OP(=O)(O)OC3C2OP(=O)(O)O1 (stereo not drawn) [ITPP, Myo-inositol trispyrophosphate]
- VSSO (cohort 2 (3732 mg/m2)): 10.6 L and 11.9 L and 8.8 L
- VZO (cohort 2 (3732 mg/m2)): 8.9 L and 10.8 L and 8.1 L
- AUCTmax (cohort 3 (5600 mg/m2)): 1142.0 µg·h/mL and 856.4 µg·h/mL and 1779.2 µg·h/mL
- AUC∞ (cohort 3 (5600 mg/m2)): 1264.3 µg·h/mL and 945.9 µg·h/mL and 1987.5 µg·h/mL
- AUC∞ / Dose (cohort 3 (5600 mg/m2)): 0.2 h*mg/L/mg (2×) and 0.4 h*mg/L/mg
- AUMCTmax (cohort 3 (5600 mg/m2)): 6061.8 h2*mg/L and 4859.5 h2*mg/L and 9884.9 h2*mg/L
- AUMC∞ (cohort 3 (5600 mg/m2)): 7579.9 h2*mg/L and 5932.4 h2*mg/L and 12427.3 h2*mg/L
- CLO (cohort 3 (5600 mg/m2)): 4.4 L/h and 5.9 L/h and 2.8 L/h
- Clast (cohort 3 (5600 mg/m2)): 50.5 µg/mL and 45.2 µg/mL and 94.2 µg/mL
- Cmax (cohort 3 (5600 mg/m2)): 163.0 µg/mL and 120.7 µg/mL and 246.0 µg/mL
- Cmax / Dose (cohort 3 (5600 mg/m2)): 0.0 mg/L/mg
- Cmin (cohort 3 (5600 mg/m2)): 0 ng/mL
- Elimination rate λz (cohort 3 (5600 mg/m2)): 0.4 /h and 0.5 /h (2×)
- Half-life / T0.5 (cohort 3 (5600 mg/m2)): 1.7 h and 1.4 h and 1.5 h
- MRTTmax (cohort 3 (5600 mg/m2)): 1.3 h and 1.7 h and 1.6 h
- MRT∞ (cohort 3 (5600 mg/m2)): 2.0 h and 2.3 h (2×)
- Tlast (cohort 3 (5600 mg/m2)): 10 h
- Tmax (cohort 3 (5600 mg/m2)): 6.0 h
- VSSO (cohort 3 (5600 mg/m2)): 8.8 L and 13.4 L and 6.3 L
- VZO (cohort 3 (5600 mg/m2)): 10.7 L and 11.7 L and 6.2 L
- AUCTmax (cohort 4 (7000 mg/m2)): 1942.5 µg·h/mL and 1258.2 µg·h/mL and 1667.1 µg·h/mL and 1676.0 µg·h/mL
- AUC∞ (cohort 4 (7000 mg/m2)): 3708.1 µg·h/mL and 1559.8 µg·h/mL and 2130.6 µg·h/mL and 1755.9 µg·h/mL
- AUC∞ / Dose (cohort 4 (7000 mg/m2)): 0.5 h*mg/L/mg and 0.2 h*mg/L/mg and 0.3 h*mg/L/mg (2×)
- AUMCTmax (cohort 4 (7000 mg/m2)): 11888.0 h2*mg/L and 7283.0 h2*mg/L and 9303.5 h2*mg/L and 8707.6 h2*mg/L
- AUMC∞ (cohort 4 (7000 mg/m2)): 44109.2 h2*mg/L and 11265.8 h2*mg/L and 15649.8 h2*mg/L and 9654.5 h2*mg/L
- CLO (cohort 4 (7000 mg/m2)): 1.9 L/h and 4.5 L/h and 3.3 L/h and 4.0 L/h
- Clast (cohort 4 (7000 mg/m2)): 214.0 µg/mL and 94.0 µg/mL and 125.5 µg/mL and 43.0 µg/mL
- Cmax (cohort 4 (7000 mg/m2)): 283.0 µg/mL and 166.5 µg/mL and 224.5 µg/mL and 292.0 µg/mL
- Cmax / Dose (cohort 4 (7000 mg/m2)): 0.0 mg/L/mg
- Cmin (cohort 4 (7000 mg/m2)): 0 ng/mL
- Elimination rate λz (cohort 4 (7000 mg/m2)): 0.1 /h and 0.3 /h (2×) and 0.5 /h
- Half-life / T0.5 (cohort 4 (7000 mg/m2)): 5.7 h and 2.2 h and 2.6 h and 1.3 h
- MRTTmax (cohort 4 (7000 mg/m2)): 2.1 h and 1.8 h and 1.6 h and 1.2 h
- MRT∞ (cohort 4 (7000 mg/m2)): 7.9 h and 3.2 h and 3.3 h and 1.5 h
- Tlast (cohort 4 (7000 mg/m2)): 10 h
- Tmax (cohort 4 (7000 mg/m2)): 9.0 h and 6.0 h (2×) and 3.0 h
- VSSO (cohort 4 (7000 mg/m2)): 14.9 L and 14.5 L and 11.0 L and 6.0 L
- VZO (cohort 4 (7000 mg/m2)): 15.6 L and 14.4 L and 12.1 L and 7.4 L
- AUCTmax (cohort 5 (8750 mg/m2)): 1729.5 µg·h/mL and 2397.4 µg·h/mL and 1424.5 µg·h/mL
- AUC∞ (cohort 5 (8750 mg/m2)): 1910.9 µg·h/mL and 2946.9 µg·h/mL and 1803.3 µg·h/mL
- AUC∞ / Dose (cohort 5 (8750 mg/m2)): 0.2 h*mg/L/mg (2×) and 0.3 h*mg/L/mg
- AUMCTmax (cohort 5 (8750 mg/m2)): 9560.8 h2*mg/L and 13507.9 h2*mg/L and 8120.6 h2*mg/L
- AUMC∞ (cohort 5 (8750 mg/m2)): 11777.2 h2*mg/L and 20800.6 h2*mg/L and 13329.9 h2*mg/L
- CLO (cohort 5 (8750 mg/m2)): 4.6 L/h and 3.0 L/h and 4.9 L/h
- Clast (cohort 5 (8750 mg/m2)): 81.5 µg/mL and 168.0 µg/mL and 101.0 µg/mL
- Cmax (cohort 5 (8750 mg/m2)): 266.5 µg/mL and 306.0 µg/mL and 201.0 µg/mL
- Cmax / Dose (cohort 5 (8750 mg/m2)): 0.0 mg/L/mg
- Cmin (cohort 5 (8750 mg/m2)): 0 ng/mL
- Elimination rate λz (cohort 5 (8750 mg/m2)): 0.4 /h and 0.3 /h (2×)
- Half-life / T0.5 (cohort 5 (8750 mg/m2)): 1.5 h and 2.3 h and 2.6 h
- MRTTmax (cohort 5 (8750 mg/m2)): 1.5 h and 1.6 h and 1.7 h
- MRT∞ (cohort 5 (8750 mg/m2)): 2.2 h and 3.1 h and 3.4 h
- Tlast (cohort 5 (8750 mg/m2)): 10 h
- Tmax (cohort 5 (8750 mg/m2)): 6.0 h
- VSSO (cohort 5 (8750 mg/m2)): 9.9 L and 9.1 L and 16.5 L
- VZO (cohort 5 (8750 mg/m2)): 10.2 L and 9.7 L and 18.2 L
- AUCTmax (cohort 6 (10500 mg/m2)): 1813.1 µg·h/mL and 2491.5 µg·h/mL and 3266.4 µg·h/mL and 2233.0 µg·h/mL
- AUC∞ (cohort 6 (10500 mg/m2)): 1921.1 µg·h/mL and 3551.0 µg·h/mL and 8601.3 µg·h/mL and 2661.5 µg·h/mL
- AUC∞ / Dose (cohort 6 (10500 mg/m2)): 0.2 h*mg/L/mg and 0.3 h*mg/L/mg (2×) and 0.8 h*mg/L/mg
- AUMCTmax (cohort 6 (10500 mg/m2)): 10264.8 h2*mg/L and 13653.6 h2*mg/L and 19354.9 h2*mg/L and 12411.4 h2*mg/L
- AUMC∞ (cohort 6 (10500 mg/m2)): 11500.0 h2*mg/L and 30316.3 h2*mg/L and 157035.6 h2*mg/L and 17933.0 h2*mg/L
- CLO (cohort 6 (10500 mg/m2)): 5.5 L/h and 3.0 L/h and 1.2 L/h and 3.9 L/h
- Clast (cohort 6 (10500 mg/m2)): 74.8 µg/mL and 185.0 µg/mL and 337.5 µg/mL and 148.5 µg/mL
- Cmax (cohort 6 (10500 mg/m2)): 265.0 µg/mL and 339.5 µg/mL and 451.0 µg/mL and 299.5 µg/mL
- Cmax / Dose (cohort 6 (10500 mg/m2)): 0.0 mg/L/mg
- Cmin (cohort 6 (10500 mg/m2)): 0 ng/mL
- Elimination rate λz (cohort 6 (10500 mg/m2)): 0.7 h⁻¹ and 0.2 h⁻¹ and 0.1 h⁻¹ and 0.3 h⁻¹
- Half-life / T0.5 (cohort 6 (10500 mg/m2)): 1.0 h and 4.0 h and 11.0 h and 2.0 h
- MRTTmax (cohort 6 (10500 mg/m2)): 1.7 h and 1.5 h and 1.9 h and 1.6 h
- MRT∞ (cohort 6 (10500 mg/m2)): 2.0 h and 4.5 h and 14.3 h and 2.7 h
- Tlast (cohort 6 (10500 mg/m2)): 10 h
- Tmax (cohort 6 (10500 mg/m2)): 6.0 h (2×) and 3.0 h (2×)
- VSSO (cohort 6 (10500 mg/m2)): 10.9 L and 13.4 L and 17.4 L and 10.8 L
- VZO (cohort 6 (10500 mg/m2)): 7.9 L and 16.9 L and 19.3 L and 11.4 L
- AUCTmax (cohort 7 (12390 mg/m2)): 2548.8 µg·h/mL and 2725.4 µg·h/mL and 2231.0 µg·h/mL
- AUC∞ (cohort 7 (12390 mg/m2)): 3050.7 µg·h/mL and 3012.0 µg·h/mL and 2566.2 µg·h/mL
- AUC∞ / Dose (cohort 7 (12390 mg/m2)): 0.2 mg·h/L/mg
- AUMCTmax (cohort 7 (12390 mg/m2)): 14937.6 h2*mg/L and 15888.2 h2*mg/L and 12461.8 h2*mg/L
- AUMC∞ (cohort 7 (12390 mg/m2)): 21377.1 h2*mg/L and 19295.7 h2*mg/L and 16684.7 h2*mg/L
- CLO (cohort 7 (12390 mg/m2)): 4.1 L/h (2×) and 4.8 L/h
- Clast (cohort 7 (12390 mg/m2)): 177.5 µg/mL and 152.0 µg/mL and 129.0 µg/mL
- Cmax (cohort 7 (12390 mg/m2)): 367.5 µg/mL and 403.5 µg/mL and 311.0 µg/mL
- Cmax / Dose (cohort 7 (12390 mg/m2)): 0.0 mg/L/mg
- Cmin (cohort 7 (12390 mg/m2)): 0 ng/mL
- Elimination rate λz (cohort 7 (12390 mg/m2)): 0.4 /h (2×) and 0.5 /h
- Half-life / T0.5 (cohort 7 (12390 mg/m2)): 2.0 h and 1.3 h and 1.8 h
- MRTTmax (cohort 7 (12390 mg/m2)): 1.9 h and 1.8 h and 1.6 h
- MRT∞ (cohort 7 (12390 mg/m2)): 3.0 h and 2.4 h and 2.5 h
- Tlast (cohort 7 (12390 mg/m2)): 10 h
- Tmax (cohort 7 (12390 mg/m2)): 6.0 h
- VSSO (cohort 7 (12390 mg/m2)): 12.2 L and 9.9 L and 12.1 L
- VZO (cohort 7 (12390 mg/m2)): 11.5 L and 7.8 L and 12.5 L
- AUCTmax (cohort 8 (14500 mg/m2)): 3458.0 µg·h/mL and 2612.8 µg·h/mL and 3213.9 µg·h/mL and 2461.1 µg·h/mL
- AUC∞ (cohort 8 (14500 mg/m2)): 3978.5 µg·h/mL and 2818.3 µg·h/mL and 3977.9 µg·h/mL and 2763.6 µg·h/mL
- AUC∞ / Dose (cohort 8 (14500 mg/m2)): 0.3 h*mg/L/mg (2×) and 0.2 h*mg/L/mg (2×)
- AUMCTmax (cohort 8 (14500 mg/m2)): 20144.2 h2*mg/L and 14245.4 h2*mg/L and 18540.8 h2*mg/L and 14081.6 h2*mg/L
- AUMC∞ (cohort 8 (14500 mg/m2)): 26577.3 h2*mg/L and 16679.9 h2*mg/L and 28758.2 h2*mg/L and 17835.7 h2*mg/L
- CLO (cohort 8 (14500 mg/m2)): 3.6 L/h (2×) and 5.1 L/h and 5.2 L/h
- Clast (cohort 8 (14500 mg/m2)): 220.5 µg/mL and 111.5 µg/mL and 226.5 µg/mL and 125.7 µg/mL
- Cmax (cohort 8 (14500 mg/m2)): 496.0 µg/mL and 377.0 µg/mL and 464.5 µg/mL and 426.0 µg/mL
- Cmax / Dose (cohort 8 (14500 mg/m2)): 0.0 mg/L/mg
- Cmin (cohort 8 (14500 mg/m2)): 0 ng/mL
- Elimination rate λz (cohort 8 (14500 mg/m2)): 0.4 /h (2×) and 0.5 /h and 0.3 /h
- Half-life / T0.5 (cohort 8 (14500 mg/m2)): 1.6 h and 1.3 h and 2.3 h and 1.7 h
- MRTTmax (cohort 8 (14500 mg/m2)): 1.8 h (2×) and 1.5 h and 1.7 h
- MRT∞ (cohort 8 (14500 mg/m2)): 2.7 h and 1.9 h and 3.2 h and 2.5 h
- Tlast (cohort 8 (14500 mg/m2)): 10 h
- Tmax (cohort 8 (14500 mg/m2)): 6.0 h
- VSSO (cohort 8 (14500 mg/m2)): 9.8 L and 9.9 L and 11.8 L and 12.9 L
- VZO (cohort 8 (14500 mg/m2)): 8.6 L and 9.5 L and 12.3 L and 12.6 L
- Half-life (range over the different cohorts): 1.3 to 3.3 h
